Reference: US10829495B2, “Thieno-pyrimidine derivatives and uses thereof” (ZHEJIANG JIANFENG-YIEN BIOTECHNOLOGY CO., LTD., priority 2015, dated 2020)

How the values were obtained:
[1] = target: EGFR T790M (Homo sapiens, UniProt P00533, T790M); assay: EGFR enzyme assay; assay type: biochemical; settings: T790M mutant
Protocol: The following TABLE II lists compounds representative of the invention and their activity in EGFR assays. In these assays, the following grading was used: A: <0.1 μM; B: 0.1-10 μM.

[2] = tested on: NCI-H1975 cells; assay: Efficacy studies in tumor bearing mice (NCI-H1975 xenograft); assay type: in vivo; settings: female nu/nu mice, subcutaneous NCI-H1975 tumors, orally at 40 mg/kg daily
Protocol: 2. Efficacy Studies in Tumor Bearing Mice:
Female nu/nu mice were implanted with 1×10^7 NCI-H1975 cells in 50% Matrigel subcutaneously in the flank. Tumors were pair matched with a group size of 10 mice. Test compound was administrated orally at 40 mg/kg daily.

Sequence of EGFR T790M (P00533 25-1210 T790M): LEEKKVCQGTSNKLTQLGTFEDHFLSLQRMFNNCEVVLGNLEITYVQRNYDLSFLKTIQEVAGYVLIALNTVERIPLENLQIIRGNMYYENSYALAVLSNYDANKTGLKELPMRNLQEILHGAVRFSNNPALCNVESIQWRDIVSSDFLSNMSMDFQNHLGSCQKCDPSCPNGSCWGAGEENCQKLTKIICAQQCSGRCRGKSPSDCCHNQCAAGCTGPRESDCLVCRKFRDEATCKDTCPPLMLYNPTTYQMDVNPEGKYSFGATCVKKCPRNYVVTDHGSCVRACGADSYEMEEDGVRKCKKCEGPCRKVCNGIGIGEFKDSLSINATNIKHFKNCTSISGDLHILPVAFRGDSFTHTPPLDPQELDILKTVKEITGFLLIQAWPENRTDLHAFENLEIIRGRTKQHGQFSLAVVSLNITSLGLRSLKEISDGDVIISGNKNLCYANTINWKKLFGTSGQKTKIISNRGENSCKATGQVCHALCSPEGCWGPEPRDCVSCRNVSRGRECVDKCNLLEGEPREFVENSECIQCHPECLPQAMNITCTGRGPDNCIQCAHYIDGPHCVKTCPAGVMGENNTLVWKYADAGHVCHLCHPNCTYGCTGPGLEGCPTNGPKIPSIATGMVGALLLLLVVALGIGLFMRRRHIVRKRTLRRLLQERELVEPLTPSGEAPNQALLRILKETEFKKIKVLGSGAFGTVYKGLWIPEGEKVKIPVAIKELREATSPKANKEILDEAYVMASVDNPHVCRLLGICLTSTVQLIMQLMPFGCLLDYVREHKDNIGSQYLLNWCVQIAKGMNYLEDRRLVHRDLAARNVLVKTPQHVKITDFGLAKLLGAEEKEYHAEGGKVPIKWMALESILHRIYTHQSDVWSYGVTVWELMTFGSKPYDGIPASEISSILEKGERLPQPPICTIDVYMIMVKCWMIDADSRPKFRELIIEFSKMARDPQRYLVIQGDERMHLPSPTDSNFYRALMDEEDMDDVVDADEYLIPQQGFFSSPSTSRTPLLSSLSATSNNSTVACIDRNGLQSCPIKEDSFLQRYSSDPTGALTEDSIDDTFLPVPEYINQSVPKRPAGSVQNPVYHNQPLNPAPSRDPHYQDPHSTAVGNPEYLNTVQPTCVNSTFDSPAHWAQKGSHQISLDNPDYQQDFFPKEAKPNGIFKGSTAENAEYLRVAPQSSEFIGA

| IC50 [1] | SMILES | Tumor growth inhibition (%) [2] |
| --- | --- | --- |
| < 100 nM | C=CC(=O)Nc1cc(Nc2nc(-c3cn(CC)c4ccccc34)c3sccc3n2)c(OC)cc1N(C)CCN(C)C [Compound 2, N-[2-[2-(dimethylamino)ethyl-methyl-amino]-5-[[4-(1-ethylindol-3-yl)thieno[3,2-d]pyrimidin-2-yl]amino]-4-methoxy-phenyl]prop-2-enamide] | >75% |
| < 100 nM | C=CC(=O)Nc1cc(Nc2nc(-c3cn(C(C)C)c4ccccc34)c3sccc3n2)c(OC)cc1N(C)CCN(C)C [Compound 3, N-[2-[2-(dimethylamino)ethyl-methyl-amino]-5-[[4-(1-isopropylindol-3-yl)thieno[3,3-d]pyrimidin-2-yl]amino]-4-methoxy-phenyl]prop-2-enamide] | – |
| < 100 nM | C=CC(=O)Nc1cc(Nc2nc(-c3cn(C)c4cc(C)ccc34)c3sccc3n2)c(OC)cc1N(C)CCN(C)C [Compound 8, N-[2-[2-(dimethylamino)ethyl-methyl-amino]-5-[[4-(1,6-dimethylindol-3-yl)thieno[3,2-d]pyrimidin-2-yl]amino]-4-methoxy-phenyl]prop-2-enamide] | – |
| < 100 nM | C=CC(=O)Nc1cc(Nc2nc(-c3cn(C)c4ccc(OC)cc34)c3sccc3n2)c(OC)cc1N(C)CCN(C)C [Compound 6, N-[2-[2-(dimethylamino)ethyl-methyl-amino]-4-methoxy-5-[[4-(5-methoxy-1-methyl-indol-3-yl)thieno[3,2-d]pyrimidin-2-yl]amino]phenyl]prop-2-enamide] | – |
| < 100 nM | C=CC(=O)Nc1cc(Nc2nc(-c3cn(C)c4ccccc34)c3sccc3n2)c(OC)cc1N(C)CCN(C)C [Compound 1, N-[2-[2-(dimethylamino)ethyl-methyl-amino]-4-methoxy-5-[[4-(1-methylindol-3-yl)thieno[3,2-d]pyrimidin-2-yl]amino]phenyl]prop-2-enamide] | >75% |
| 100 to 10000 nM | C=CC(=O)Nc1cc(Nc2nc(-c3cn(C)c4cc(OC)ccc34)c3sccc3n2)c(OC)cc1N(C)CCN(C)C [Compound 7, N-[2-[2-(dimethylamino)ethyl-methyl-amino]-4-methoxy-5-[[4-(6-methoxy-1-methyl-indol-3-yl)thieno[3,2-d]pyrimidin-2-yl]amino]phenyl]prop-2-enamide] | – |
| < 100 nM | C=CC(=O)Nc1cc(Nc2nc(-c3cn(C)c4ccc(C)cc34)c3sccc3n2)c(OC)cc1N(C)CCN(C)C [Compound 5, N-[2-[2-(dimethylamino)ethyl-methyl-amino]-5-[[4-(1,5-dimethylindol-3-yl)thienol[3,2-d]pyrimidin-2-yl]amino]-4-methoxy-phenyl]prop-2-enamide] | – |
| 100 to 10000 nM | C=CC(=O)Nc1cc(Nc2nc(-c3cn(C(C)(C)C)c4ccccc34)c3sccc3n2)c(OC)cc1N(C)CCN(C)C [Compound 4, N-[5-[[4-(1-tert-butylindol-3-yl)thieno[3,2-d]pyrimidin-2-yl]amino]-2-[2-(dimethylamino)ethyl-methyl-amino]-4-methoxy-phenyl]prop-2-enamide] | – |
